Converted amounts (≈) assume the structure as drawn. Values belong to the compound of their own block, whether it stands above or below them.
Columns and labels:
Test in all cases: ≥ marks a high value that may be exact or a test limit, other limits are often not marked, values filed in µg/mL are converted to µM
[1] = tested on: Trichosporon beigelii KCTC 7707
[2] = tested on: Pseudomonas aeruginosa ATCC 27853
[3] = tested on: Candida albicans KCTC 7270
[4] = tested on: Bacillus subtilis KCTC 1998
[5] = tested on: Pseudomonas aeruginosa 4007
[6] = tested on: Escherichia coli ATCC 25922
[7] = tested on: Staphylococcus aureus CCARM 3090
[8] = tested on: Listeria monocytogenes KCTC 3710
[9] = tested on: Staphylococcus aureus CCARM 3518
[10] = tested on: Staphylococcus aureus ATCC 25923
[11] = tested on: Salmonella typhimurium KCTC 1926
[12] = tested on: Pseudomonas aeruginosa 4891
[13] = tested on: Escherichia coli CCARM 1238
[14] = tested on: Escherichia coli CCARM 1229
[15] = tested on: Serratia marcescens ATCC 8100
Bacillus megaterium Bm11 = tested on: Bacillus megaterium Bm11
Escherichia coli ML-35 = tested on: Escherichia coli ML-35
[16] = tested on: Staphylococcus epidermidis ATCC 12228
[17] = tested on: Salmonella enterica subsp. enterica serovar Typhimurium ATCC 14028
Escherichia coli D21 = tested on: Escherichia coli D21
[18] = tested on: Staphylococcus aureus ATCC 29213
[19] = tested on: Listeria monocytogenes CMCC 54004
[20] = tested on: Salmonella enterica subsp. enterica serovar Typhi CMCC 50071
[21] = tested on: Salmonella enterica subsp. enterica serovar Pullorum C79-13
Escherichia coli UB1005 = tested on: Escherichia coli UB1005
[22] = tested on: Staphylococcus aureus ATCC BAA-44
Bacillus subtilis = tested on: Bacillus subtilis
[23] = tested on: Klebsiella pneumoniae ATCC 13883
[24] = tested on: Staphylococcus epidermidis ATCC 51625
Escherichia coli = tested on: Escherichia coli
[25] = tested on: Streptococcus pyogenes ATCC 19615
[26] = tested on: Enterococcus faecalis ATCC 29212
[27] = tested on: Aspergillus fumigatus KCTC 6145
[28] = tested on: Staphylococcus epidermidis KCTC 1917
[29] = tested on: Malassezia furfur KCTC 7744
[30] = tested on: Salmonella enterica subsp. enterica serovar Enteritidis ATCC 13076
[31] = tested on: Candida albicans ATCC 90028
[32] = tested on: Aspergillus flavus KCTC 6905
[33] = tested on: Candida parapsilosis ATCC 22019
[34] = tested on: Streptococcus mutans KCTC 3065
Escherichia coli BW25113 = tested on: Escherichia coli BW25113
[35] = tested on: Enterococcus faecium ATCC 19434
[36] = tested on: Staphylococcus aureus 5118
[37] = tested on: Staphylococcus aureus E4049
[38] = tested on: Staphylococcus aureus ATCC 9144

MIC [1]: ≥ 32 µM | MIC [2]: 2 µM (≈ 5.77 µg/mL) | MIC [3]: ≥ 32 µM | MIC [4]: 4 µM (≈ 11.5 µg/mL) | MIC [5]: 2 µM (≈ 5.77 µg/mL) | MIC [6]: 2 µM (≈ 5.77 µg/mL) | MIC [7]: 4 µM (≈ 11.5 µg/mL) | MIC [8]: 8 µM (≈ 23.1 µg/mL) | MIC [9]: 4 µM (≈ 11.5 µg/mL) | MIC [10]: 4 µM (≈ 11.5 µg/mL) | MIC [11]: 2 µM (≈ 5.77 µg/mL) | MIC [12]: 4 µM (≈ 11.5 µg/mL) | MIC [13]: 2 µM (≈ 5.77 µg/mL) | MIC [14]: 2 µM (≈ 5.77 µg/mL)
Structure (SMILES): CC[C@H](C)[C@H](NC(=O)CNC(=O)[C@H](CCC(N)=O)NC(=O)[C@H](Cc1ccccc1)NC(=O)[C@@H](NC(=O)[C@H](CCCCN)NC(=O)[C@H](CCCCN)NC(=O)[C@H](CC(C)C)NC(=O)[C@H](C)NC(=O)[C@H](CC(N)=O)NC(=O)[C@H](CC(C)C)NC(=O)[C@@H](N)Cc1c[nH]c2ccccc12)C(C)C)C(=O)N[C@@H](Cc1cnc[nH]1)C(=O)N[C@@H](CCC(=O)O)C(=O)N[C@@H](C)C(=O)N[C@H](C(=O)N[C@@H](CCCCN)C(=O)N[C@@H](CC(C)C)C(=O)N[C@H](C(=O)N[C@@H](Cc1c[nH]c2ccccc12)C(=O)N[C@@H](CC(N)=O)C(=O)N[C@@H](Cc1cnc[nH]1)C(=O)N[C@H](C(=O)N[C@@H](CCC(N)=O)C(N)=O)C(C)C)[C@@H](C)CC)[C@@H](C)CC [WLNALKKVFQGIHEAIKLIWNHVQ]

MIC [15]: ≥ 32 µM | MIC (Bacillus megaterium Bm11): ≥ 32 µM | MIC (Escherichia coli ML-35): ≥ 32 µM | MIC [16]: > 64 µM | MIC [17]: 8 µM (≈ 15.3 µg/mL) | MIC (Escherichia coli D21): 16 µM (≈ 30.6 µg/mL)
Structure (SMILES): CC(C)C[C@H](NC(=O)[C@H](Cc1ccc(O)cc1)NC(=O)[C@@H]1CCCN1C(=O)[C@@H]1CCCN1C(=O)[C@H](CCCN=C(N)N)NC(=O)[C@@H]1CCCN1C(=O)[C@H](CCCN=C(N)N)NC(=O)[C@H](CCCN=C(N)N)NC(=O)[C@@H](N)CCCN=C(N)N)C(=O)N1CCC[C@H]1C(=O)N1CCC[C@H]1C(=O)N[C@@H](CCCN=C(N)N)C(=O)N[C@@H](CCCN=C(N)N)C(=O)N1CCC[C@H]1C(=O)N1CCC[C@H]1C(=O)O [RRRPRPPYLPPRRPP]

MIC [18]: 640 µM (≈ 887 µg/mL) | MIC [6]: 64 µM (≈ 88.7 µg/mL) | MIC [19]: ≥ 64 µM | MIC [20]: ≥ 256 µM | MIC [21]: ≥ 256 µM | MIC (Escherichia coli UB1005): ≥ 128 µM
Structure (SMILES): CC(C)C[C@H](NC(=O)[C@H](CCC(N)=O)NC(=O)[C@@H]1CCCN1C(=O)[C@@H](NC(=O)[C@H](CCCCN)NC(=O)[C@H](Cc1ccc(O)cc1)NC(=O)[C@H](CCCCN)NC(=O)[C@H](CCCCN)NC(=O)[C@H](CC(C)C)NC(=O)[C@H](CCCN=C(N)N)NC(=O)[C@@H](N)CC(C)C)C(C)C)C(=O)O [LRLKKYKVPQL]

MIC [22]: 30 µM (≈ 77.4 µg/mL) | MIC (Bacillus subtilis): 6 µM (≈ 15.5 µg/mL) | MIC [2]: 8 µM (≈ 20.6 µg/mL) | MIC [10]: 6 µM (≈ 15.5 µg/mL) | MIC [23]: 6 µM (≈ 15.5 µg/mL) | MIC [24]: 30 µM (≈ 77.4 µg/mL) | MIC (Escherichia coli): 6 µM (≈ 15.5 µg/mL) | MIC [17]: 8 µM (≈ 20.6 µg/mL) | MIC [25]: 15 µM (≈ 38.7 µg/mL) | MIC [26]: 6 µM (≈ 15.5 µg/mL)
Structure (SMILES): CC(C)C[C@H](NC(=O)[C@H](CO)NC(=O)[C@H](CCCN=C(N)N)NC(=O)[C@H](CCCCN)NC(=O)[C@@H](NC(=O)[C@@H](NC(=O)CNC(=O)[C@H](CCCN=C(N)N)NC(=O)[C@H](Cc1cnc[nH]1)NC(=O)[C@H](Cc1c[nH]c2ccccc12)NC(=O)[C@H](Cc1ccccc1)NC(=O)[C@H](Cc1cnc[nH]1)NC(=O)[C@H](Cc1ccc(O)cc1)NC(=O)[C@@H](N)Cc1ccc(O)cc1)C(C)C)[C@@H](C)O)C(=O)N[C@@H](CO)C(=O)N1CCC[C@H]1C(=O)N[C@@H](Cc1cnc[nH]1)C(=O)N[C@@H](CCCN=C(N)N)C(=O)N1CCC[C@H]1C(=O)N[C@@H](CCCN=C(N)N)C(=O)O [YYHFWHRGVTKRSLSPHRPR]

MIC [27]: 10 µM (≈ 17.6 µg/mL) | MIC [28]: 5 µM (≈ 8.78 µg/mL) | MIC [1]: 5 µM (≈ 8.78 µg/mL) | MIC [2]: 10 µM (≈ 17.6 µg/mL) | MIC [29]: 5 µM (≈ 8.78 µg/mL) | MIC [30]: 5 µM (≈ 8.78 µg/mL) | MIC [31]: 10 µM (≈ 17.6 µg/mL) | MIC [32]: 10 µM (≈ 17.6 µg/mL) | MIC [33]: 5 µM (≈ 8.78 µg/mL) | MIC [34]: 5 µM (≈ 8.78 µg/mL) | MIC [11]: 5 µM (≈ 8.78 µg/mL) | MIC (Escherichia coli BW25113): 5 µM (≈ 8.78 µg/mL) | MIC [35]: 2.5 µM (≈ 4.39 µg/mL) | MIC [26]: 2.5 µM (≈ 4.39 µg/mL)
Structure (SMILES): CC(C)C[C@H](NC(=O)[C@H](CCCCN)NC(=O)[C@H](CC(C)C)NC(=O)[C@H](CC(N)=O)NC(=O)[C@H](CC(C)C)NC(=O)[C@H](CCCCN)NC(=O)[C@H](CS)NC(=O)[C@@H]1CCCN1C(=O)[C@@H](N)Cc1ccc(O)cc1)C(=O)NCC(=O)N[C@@H](CCCCN)C(=O)N[C@H](C(=O)N1CCC[C@H]1C(=O)N[C@@H](Cc1ccccc1)C(=O)N[C@@H](Cc1cnc[nH]1)C(N)=O)C(C)C [YPCKLNLKLGKVPFH]

MIC [36]: 2.3 µM (≈ 5 µg/mL) | MIC [37]: 7.82 µM (≈ 17 µg/mL) | MIC [38]: ≥ 280 µM
Structure (SMILES): CSCC[C@H](NC(=O)[C@H](C)NC(=O)[C@H](C)NC(=O)CNC(=O)[C@H](CCCN=C(N)N)NC(=O)[C@H](CC(=O)O)NC(=O)[C@@H](N)CC(=O)O)C(=O)N[C@@H](Cc1ccccc1)C(=O)N[C@@H](C)C(=O)N[C@H](C(=O)N[C@@H](CC(C)C)C(=O)N[C@@H](Cc1ccccc1)C(=O)N[C@@H](CC(N)=O)C(=O)N[C@@H](C)C(=O)N[C@@H](Cc1ccccc1)C(=O)N[C@@H](CO)C(=O)N[C@@H](CO)C(=O)N[C@@H](CC(C)C)C(=O)N[C@@H](CC(C)C)C(=O)N[C@@H](CCC(=O)O)C(=O)O)C(C)C [DDRGAAMFAVLFNAFSSLLE]
